The subject of series [1] is FR-positive M109 tumors. Briefly: Tissue distribution, subcutaneous M109 tumors (Example 11). The protocol:
The ability of ^99mTc-EC20 to target tumors in vivo was assessed using a FR-positive M109 model.
Four to five week-old mice (Balb/c strain) were purchased from Harlan Sprague Dawley, Inc. (Indianapolis, Ind.) and were maintained on a folate-free diet for a total of three weeks prior to the experiment. Syngeneic, FR-positive M109 tumor cells (1×10^6 per animal) were inoculated in the subcutis of the right axilla two weeks prior to the experiment.
Animals received an approximate 40 μmol/kg i.v. dose of test article in 100 μL volume via a lateral tail vein during brief diethyl ether anesthesia. Four hours post-injection, animals were sacrificed by CO2 asphyxiation, and dissected. Selected tissues were removed, weighed, and counted to determine ^99mTc distribution. CPM values were decay-corrected, and results were tabulated as % injected dose per gram of wet weight tissue.

The subject of series [2] is FR-positive KB tumors. Briefly: Tissue distribution, KB tumor model (Example 16, Table 5). Type of series: in vivo, nude mice. Conditions: for accumulation in FR-positive KB tumors and kidneys on co-administration of free folate: about 20-fold excess of free folate; for Blood / Heart / Kidney (one) / Liver & Gall Bladder / Lungs / Muscle / Spleen / Stomach, Intestines & Contents / Tumor: 99mTc-labelled conjugate, 4 hours post i.v. As for the experimental part: The protocols used in this example are similar to those described in Example 11. The ability of ^99mTc-EC11 (peptide-A1), ^99mTc-EC13 (peptide-A3), and ^99mTc-EC14 (peptide-A2) to target tumors in vivo was assessed using the FR-positive KB tumor model.
FR-positive KB tumor cells (0.25×10^6 per animal) were inoculated subcutaneously in the intracapsular region. Fourteen days after tumor cell inoculation, the animals (n=4/group) were injected intravenously with ^99mTc-EC11, ^99mTc-EC13, or ^99mTc-EC14 at the doses (about 12 μg/kg) of the conjugates shown in Table 5 below. Stocks of ^99mTc-EC11, ^99mTc-EC13, and ^99mTc-EC14 solutions were prepared on the day of use as described above. About a 20-fold excess of free folate (about 200 μg/kg) was co-administered to control animals (n=4/group). […] Selected tissues were removed, weighed, and counted in an automatic gamma counter to determine ^99mTc distribution. Uptake of the radiopharmaceutical in terms of percentage injected dose of wet weight tissue (% ID/g) was calculated by reference to standards prepared from dilutions of the injected preparation.

The mark [3] stands for this setting: 4 hr post i.v., + Folic acid (100 equivalents).
Setting [4] is: 4 hr post intravenous injection.
The mark [5] stands for this setting: folic acid dihydrate co-injected (about 200 μg/kg).
Setting [6] is: folic acid dihydrate co-injected.

For `Nc1nc2ncc(CNc3ccc(C(=O)N[C@@H](CCC(=O)N[C@H](CCC(=O)NC[C@@H]4[NH2+][99Tc-]56(=[O])[S]C[C@@H](C(=O)O)[N]5C(=O)[C@H](CC(=O)O)[N]6C4=O)C(=O)O)C(=O)O)cc3)nc2c(=O)[nH]1` [^99mTc-EC14], in series [1] (setting [3]), the Blood was 0.19 ± 0.07 % Injected Dose per Gram Tissue, the Heart is recorded as 0.08 ± 0.01 % Injected Dose per Gram Tissue, the Intestine is listed as 0.32 ± 0.11 % Injected Dose per Gram Tissue and the Kidney is 5.94 ± 0.52 % Injected Dose per Gram Tissue. In addition, in series [1] (setting [3]), the Liver is given as 1.37 ± 0.98 % Injected Dose per Gram Tissue, the Lung was 0.15 ± 0.04 % Injected Dose per Gram Tissue, the Muscle was 0.09 ± 0.11 % Injected Dose per Gram Tissue and the Spleen is listed as 2.99 ± 1.43 % Injected Dose per Gram Tissue. Besides, in series [1] (setting [3]), the Stomach is 0.10 ± 0.03 % Injected Dose per Gram Tissue, the Tumor was 0.43 ± 0.52 % Injected Dose per Gram Tissue and the Tumor/Blood is 2.00 ± 2.00. In series [1] (setting [4]), the Blood is given as 0.31 ± 0.14 % Injected Dose per Gram Tissue, the Heart is 2.39 ± 0.64 % Injected Dose per Gram Tissue, the Intestine was 1.70 ± 0.55 % Injected Dose per Gram Tissue and the Kidney is 98.0 ± 40.7 % Injected Dose per Gram Tissue. In series [1] (setting [4]), the Liver is recorded as 3.44 ± 2.19 % Injected Dose per Gram Tissue, the Lung is on record as 2.08 ± 0.40 % Injected Dose per Gram Tissue, the Muscle was 0.99 ± 0.28 % Injected Dose per Gram Tissue and the Spleen was 2.68 ± 2.49 % Injected Dose per Gram Tissue. In series [1] (setting [4]), the Stomach is listed as 1.47 ± 0.58 % Injected Dose per Gram Tissue and the Tumor/Blood was determined as 34.1 ± 7.41. Besides, the “accumulation in FR-positive KB tumors and kidneys on co-administration of free folate” value (“accumulation … of free folate” below) in series [2] is “blocked”.

On to `Nc1nc2ncc(CNc3ccc(C(=O)N[C@@H](CCC(=O)NC[C@@H]4[NH2+][99Tc-]56(=[O])[S]C[C@@H](C(=O)O)[N]5C(=O)[C@H](CO)[N]6C4=O)C(=O)O)cc3)nc2c(=O)[nH]1` [^99mTc-EC13], for which the “accumulation … of free folate” value in series [2] was “blocked”.

For `Nc1nc2ncc(CNc3ccc(C(=O)N[C@@H](CCC(=O)N[C@@H](CCC(=O)NC[C@@H]4[NH2+][99Tc-]56(=[O])[S]C[C@@H](C(=O)O)[N]5C(=O)[C@H](CC(=O)O)[N]6C4=O)C(=O)O)C(=O)O)cc3)nc2c(=O)[nH]1` [^99mTc-EC11], in series [2], the “accumulation … of free folate” value was “blocked”.

As to “benzoyl-D-Glu-n-Glu-βDpr-Asp-Cys [^99mTc-EC28, reference compound]”, the “accumulation in the kidneys and tumor” value in series [1] (4 hr post i.v.) was “failed to appreciably accumulate in the kidneys and tumor”. Also, in series [1] (setting [4]), the Blood is recorded as 0.06 ± 0.04 % Injected Dose per Gram Tissue, the Heart is listed as 0.03 ± 0.01 % Injected Dose per Gram Tissue, the Intestine is 0.47 ± 0.19 % Injected Dose per Gram Tissue and the Kidney is on record as 0.62 ± 0.14 % Injected Dose per Gram Tissue. Moreover, in series [1] (setting [4]), the Liver is 0.50 ± 0.26 % Injected Dose per Gram Tissue, the Lung is 0.05 ± 0.01 % Injected Dose per Gram Tissue, the Muscle is 0.02 ± 0.01 % Injected Dose per Gram Tissue and the Spleen is 0.60 ± 0.38 % Injected Dose per Gram Tissue. Further, in series [1] (setting [4]), the Stomach is 0.21 ± 0.19 % Injected Dose per Gram Tissue and the Tumor/Blood stood at 2.00 ± 0.50. Further, in series [1] (4 hr post intravenous injection, M109 tumor), the Tumor is given as 0.11 ± 0.06 % Injected Dose per Gram Tissue.

As to `Nc1nc2ncc(CNc3ccc(C(=O)N[C@@H](CCC(=O)NCCNC(=O)CN(CCN(CCN(CC(=O)[O-])CC(=O)[O-])CC(=O)[O-])CC(=O)[O-])C(=O)O)cc3)nc2c(=O)[nH]1.[111In]` [^111In-DTPA-Folate, reference compound], in series [1] (setting [3]), the Blood is given as 0.09 ± 0.04 % Injected Dose per Gram Tissue, the Heart is reported as 0.06 ± 0.02 % Injected Dose per Gram Tissue, the Intestine was 0.82 ± 0.14 % Injected Dose per Gram Tissue and the Kidney is 3.14 ± 1.96 % Injected Dose per Gram Tissue. For the same compound, in series [1] (setting [3]), the Liver was 0.81 ± 0.03 % Injected Dose per Gram Tissue, the Lung is given as 0.09 ± 0.2 % Injected Dose per Gram Tissue, the Muscle was 0.05 ± 0.04 % Injected Dose per Gram Tissue and the Spleen is given as 1.46 ± 0.73 % Injected Dose per Gram Tissue. In addition, in series [1] (setting [3]), the Stomach is recorded as 0.25 ± 0.20 % Injected Dose per Gram Tissue, the Tumor is 0.46 ± 0.42 % Injected Dose per Gram Tissue and the Tumor/Blood is listed as 5.00 ± 4.60. In series [1] (setting [4]), the Blood is given as 0.21 ± 0.10 % Injected Dose per Gram Tissue, the Heart is 2.57 ± 0.82 % Injected Dose per Gram Tissue, the Intestine is 1.87 ± 0.69 % Injected Dose per Gram Tissue and the Kidney is 191 ± 79.2 % Injected Dose per Gram Tissue. In series [1] (setting [4]), the Liver is reported as 5.21 ± 2.63 % Injected Dose per Gram Tissue, the Lung was 1.72 ± 0.61 % Injected Dose per Gram Tissue, the Muscle is 1.19 ± 0.48 % Injected Dose per Gram Tissue and the Spleen is on record as 3.30 ± 2.33 % Injected Dose per Gram Tissue. Moreover, in series [1] (setting [4]), the Stomach was 1.62 ± 0.65 % Injected Dose per Gram Tissue and the Tumor/Blood is 102 ± 43.4.

On to `Nc1nc2ncc(CNc3ccc(C(=O)N[C@@H](CCC(=O)N[C@@H](CCC(=O)NC[C@H](N)C(=O)N[C@@H](CC(=O)O)C(=O)N[C@@H](CS)C(=O)O)C(=O)O)C(=O)O)cc3)nc2c(=O)[nH]1` [EC11], for which, in series [2] (setting [5]), the Blood is recorded as 0.25 ± 0.01 Percentage of Injected 99mTc D, the Heart is given as 0.36 ± 0.03 Percentage of Injected 99mTc D, the “Kidney (one)” value is given as 55.5 ± 2.3 Percentage of Injected 99mTc D and the “Liver & Gall Bladder” value is given as 1.6 ± 0.1 Percentage of Injected 99mTc D. Besides, in series [2] (setting [5]), the Lungs is on record as 0.35 ± 0.03 Percentage of Injected 99mTc D; the Muscle is reported as 0.38 ± 0.06 Percentage of Injected 99mTc D; the Spleen is listed as 0.23 ± 0.01 Percentage of Injected 99mTc D; the “Stomach, Intestines & Contents” value is given as 1.1 ± 0.3 Percentage of Injected 99mTc D. The Tumor in series [2] (setting [5]) is on record as 1.47 ± 0.24 Percentage of Injected 99mTc D. In addition, in series [2] (no folic acid), the Blood is on record as 0.21 ± 0.01 Percentage of Injected 99mTc D, the Heart is 2.5 ± 0.3 Percentage of Injected 99mTc D, the “Kidney (one)” value was 67.8 ± 6.9 Percentage of Injected 99mTc D and the “Liver & Gall Bladder” value is listed as 5.4 ± 1.4 Percentage of Injected 99mTc D. Further, in series [2] (no folic acid), the Lungs is given as 1.2 ± 0.2 Percentage of Injected 99mTc D; the Muscle is on record as 1.8 ± 0.1 Percentage of Injected 99mTc D; the Spleen is on record as 0.38 ± 0.03 Percentage of Injected 99mTc D; the “Stomach, Intestines & Contents” value is recorded as 1.4 ± 0.1 Percentage of Injected 99mTc D. In series [2] (no folic acid), the Tumor/Blood stood at 13.7 ± 2.1, the Tumor/Kidney amounted to 0.043 ± 0.005, the Tumor/Liver stood at 0.57 ± 0.14 and the Tumor/Muscle worked out at 1.6 ± 0.3. In addition, the Tumor in series [2] (no folic acid, KB tumor) is 2.95 ± 0.57 Percentage of Injected 99mTc D. For the same compound, in series [2] (setting [6]), the Tumor/Blood turned out to be 5.9 ± 0.9, the Tumor/Kidney stood at 0.027 ± 0.005, the Tumor/Liver was 0.94 ± 0.09 and the Tumor/Muscle is on record as 3.9 ± 0.08.
